Values after ≈ are worked out from the molar mass of the structure shown. Active and inactive are the calls of the source. The calls are words filed in the database; no cut-off is given here.
What was measured:
Candida parapsilosis = test: Antifungal activity against Candida parapsilosis assessed as fungal growth inhibition; format: functional; settings: Lodderomyces parapsilosis
Cryptococcus neoformans = test: Antifungal activity against Cryptococcus neoformans assessed as fungal growth inhibition; format: functional
Candida tropicalis = test: Antifungal activity against Candida tropicalis assessed as fungal growth inhibition; format: functional
Pichia kudriavzevii = test: Antifungal activity against Candida krusei assessed as fungal growth inhibition; format: functional
Kluyveromyces marxianus = test: Antifungal activity against Candida kefyr assessed as fungal growth inhibition; format: functional
Candida albicans = test: Antifungal activity against Candida albicans assessed as fungal growth inhibition; format: functional
Nakaseomyces glabratus [1] = test: Antifungal activity against Candida glabrata assessed as fungal growth inhibition; format: functional
Nakaseomyces glabratus [2] = test: Fungicidal activity against Candida glabrata assessed as time taken to kill fungal colony at MIC by time kill kinetic assay; format: functional
[3] = Cytotoxicity against human HEK293 cells assessed as cell viability at 20 to 50 uM by MTT assay relative to control; format: cell-based; settings: read-out: Activity
Nakaseomyces glabratus [4] = test: Synergistic antifungal activity against Candida glabrata assessed as fractional inhibitory concentration index in presence of fluconazole by checkerboard assay; format: functional
Nakaseomyces glabratus [5] = test: Induction of apoptosis in Candida glabrata assessed as early apoptotic cells at 9.70 uM incubated for 4 hrs by annexin V-FITC/propidium iodide staining based analysis (reference value: 3%); format: functional
Nakaseomyces glabratus [6] = test: Induction of apoptosis in Candida glabrata assessed as late apoptotic cells at 9.70 uM incubated for 4 hrs by annexin V-FITC/propidium iodide staining based analysis (reference value: 0.1%); format: functional
[7] = Cytotoxicity against human HeLa cells assessed as cell viability at 20 to 50 uM by MTT assay relative to control; format: cell-based; settings: read-out: Activity
Nakaseomyces glabratus [8] = test: Induction of morphological changes in Candida glabrata assessed as increase in asymmetry at 9.7 uM by FE-SEM analysis; format: functional, organism-based
[9] = Cytotoxicity against human HEK293 cells assessed as cell viability at 2.5 uM by MTT assay relative to control; format: cell-based; settings: read-out: Activity
[10] = Cytotoxicity against human HeLa cells assessed as reduction in cell viability at 10 uM by MTT assay relative to control; format: cell-based; settings: read-out: INH
Nakaseomyces glabratus [11] = test: Induction of apoptosis in Candida glabrata assessed as live cells at 9.70 uM incubated for 4 hrs by annexin V-FITC/propidium iodide staining based analysis (reference value: 95.5%); format: functional
Nakaseomyces glabratus [12] = test: Synergistic antifungal activity against Candida glabrata assessed as fractional inhibitory concentration index in presence of amphotericin B by checkerboard assay; format: functional
Nakaseomyces glabratus [13] = test: Synergistic antifungal activity against Candida glabrata assessed as fold potentiation of AmphotericinB MIC for antifungal activity by checkerboard assay relative to control; format: functional
Nakaseomyces glabratus [14] = test: Synergistic antifungal activity against Candida glabrata assessed as fractional inhibitory concentration index in presence of ketoconazole by checkerboard assay; format: functional
Nakaseomyces glabratus [15] = test: Induction of morphological changes in Candida glabrata assessed as roughness of cell surface at 9.7 uM by FE-SEM analysis; format: functional, organism-based
Nakaseomyces glabratus [16] = test: Induction of morphological changes in Candida glabrata assessed as disintegration of cell surface at 9.7 uM by FE-SEM analysis; format: functional, organism-based
[17] = Cytotoxicity against human HEK293 cells assessed as reduction in cell viability at 10 uM by MTT assay relative to control; format: cell-based; settings: read-out: INH
Nakaseomyces glabratus [18] = test: Synergistic antifungal activity against Candida glabrata assessed as fold potentiation of ketoconazole MIC for antifungal activity by checkerboard assay relative to control; format: functional
Nakaseomyces glabratus [19] = test: Synergistic antifungal activity against Candida glabrata assessed as fold potentiation of fluconazole MIC for antifungal activity by checkerboard assay relative to control; format: functional
Nakaseomyces glabratus [20] = test: Induction of apoptosis in Candida glabrata assessed as necrotic cells at 9.70 uM incubated for 4 hrs by annexin V-FITC/propidium iodide staining based analysis (reference value: 1.4%); format: functional

SMILES	MIC (Candida parapsilosis)	MIC (Cryptococcus neoformans)	MIC (Candida tropicalis)	MIC (Pichia kudriavzevii)	MIC (Kluyveromyces marxianus)	MIC (Candida albicans)	MIC (Nakaseomyces glabratus [1])	also measured
COC(=O)[C@@H]1Cc2c([nH]c3ccccc23)[C@H](c2ccccc2)N1	> 250 µM	> 250 µM	> 250 µM	> 250 µM	> 250 µM	> 250 µM	> 250 µM	–
OC(Cn1cncn1)(Cn1cncn1)c1ccc(F)cc1F [FLUCONAZOLE]	–	–	–	–	–	–	13.1 µM (≈ 4 µg/mL)	–
CC(=O)N1CCN(c2ccc(OCC3COC(Cn4ccnc4)(c4ccc(Cl)cc4Cl)O3)cc2)CC1 (stereo unspecified) [KETOCONAZOLE]	–	–	–	–	–	–	15.1 µM (≈ 8 µg/mL)	–
CCCCCC[C@H]1N[C@H](C(=O)OC)Cc2c1[nH]c1ccccc21	> 250 µM	> 250 µM	> 250 µM	> 250 µM	> 250 µM	> 250 µM	> 250 µM	–
COC(=O)[C@@H]1Cc2c([nH]c3ccccc23)[C@@H](c2ccc3c(c2)OCO3)N1	> 250 µM	> 250 µM	> 250 µM	> 250 µM	> 250 µM	> 250 µM	> 250 µM	–
CCCCCCCC[C@@H]1N[C@H](C(=O)OC)Cc2c1[nH]c1ccccc21	> 250 µM	39.1 µM (≈ 13.4 µg/mL)	> 250 µM	> 250 µM	62.5 µM (≈ 21.4 µg/mL)	> 250 µM	62.5 µM (≈ 21.4 µg/mL)	–
COC(=O)[C@@H]1Cc2c([nH]c3ccccc23)[C@H](c2ccc3c(c2)OCO3)N1	> 250 µM	> 250 µM	> 250 µM	> 250 µM	> 250 µM	> 250 µM	> 250 µM	–
COC(=O)[C@@H]1Cc2c([nH]c3ccccc23)[C@@H](c2cccs2)N1	> 250 µM	> 250 µM	> 250 µM	> 250 µM	> 250 µM	> 250 µM	> 250 µM	–
CCCCCC[C@@H]1N[C@H](C(=O)OC)Cc2c1[nH]c1ccccc21	> 250 µM	156 µM (≈ 49.1 µg/mL)	> 250 µM	> 250 µM	> 250 µM	> 250 µM	> 250 µM	–
CCCC[C@H]1N[C@H](C(=O)OC)Cc2c1[nH]c1ccccc21	156 µM (≈ 44.7 µg/mL)	> 250 µM	> 250 µM	156 µM (≈ 44.7 µg/mL)	156 µM (≈ 44.7 µg/mL)	> 250 µM	> 250 µM	–
COC(=O)[C@@H]1Cc2c([nH]c3ccccc23)[C@H](c2cccnc2)N1	> 250 µM	> 250 µM	> 250 µM	> 250 µM	> 250 µM	> 250 µM	> 250 µM	–
C[C@@H]1[C@H](O)[C@@H](C)/C=C/C=C/C=C/C=C/C=C/C=C/C=C/[C@H](O[C@@H]2O[C@H](C)[C@@H](O)[C@H](N)[C@@H]2O)C[C@@H]2O[C@](O)(C[C@@H](O)C[C@@H](O)[C@H](O)CC[C@@H](O)C[C@@H](O)CC(=O)O[C@H]1C)C[C@H](O)[C@H]2C(=O)O [AMPHOTERICIN B]	1.56 µM (≈ 1.44 µg/mL)	0.78 µM (≈ 0.721 µg/mL)	0.78 µM (≈ 0.721 µg/mL)	0.78 µM (≈ 0.721 µg/mL)	12.5 µM (≈ 11.6 µg/mL)	1.56 µM (≈ 1.44 µg/mL)	0.39 to 0.78 µM (≈ 0.36 to 0.721 µg/mL)	Time (Nakaseomyces glabratus [2]): 4 h
COC(=O)[C@@H]1Cc2c([nH]c3ccccc23)[C@@H](c2cccnc2)N1	> 250 µM	> 250 µM	> 250 µM	> 250 µM	> 250 µM	> 250 µM	> 250 µM	–
CCCCCCCCCCC[C@@H]1N[C@H](C(=O)OC)Cc2c1[nH]c1ccccc21	> 250 µM	> 250 µM	> 250 µM	> 250 µM	> 250 µM	> 250 µM	> 250 µM	–
COC(=O)[C@@H]1Cc2c([nH]c3ccccc23)[C@H](c2cccs2)N1	> 250 µM	> 250 µM	> 250 µM	> 250 µM	> 250 µM	> 250 µM	> 250 µM	–
COC(=O)[C@@H]1Cc2c([nH]c3ccccc23)[C@@H](c2ccccc2)N1	> 250 µM	> 250 µM	> 250 µM	> 250 µM	125 µM (≈ 38.3 µg/mL)	> 250 µM	> 250 µM	–
CCCCCCCC[C@H]1N[C@H](C(=O)OC)Cc2c1[nH]c1ccccc21	39.1 µM (≈ 13.4 µg/mL)	19.6 µM (≈ 6.7 µg/mL)	19.6 µM (≈ 6.7 µg/mL)	19.6 µM (≈ 6.7 µg/mL)	9.7 µM (≈ 3.32 µg/mL)	39.1 µM (≈ 13.4 µg/mL)	9.7 µM (≈ 3.32 µg/mL)	viability at up to 50 µM [3]: 70 to 80%; fractional inhibitory concentration index (FICI) (Nakaseomyces glabratus [4]): 0.48; Activity (Nakaseomyces glabratus [5]): 3.5%; Activity (Nakaseomyces glabratus [6]): 87.7%; viability at up to 50 µM [7]: 70 to 80%; Activity (Nakaseomyces glabratus [8]): Active; viability at 2.5 µM [9]: 95%; cytotoxicity at 10 µM [10]: 14%; Activity (Nakaseomyces glabratus [11]): 5.6%; fractional inhibitory concentration index (FICI) (Nakaseomyces glabratus [12]): 0.24; Time (Nakaseomyces glabratus [2]): 12 h; fold change (FC) (Nakaseomyces glabratus [13]): 11; fractional inhibitory concentration index (FICI) (Nakaseomyces glabratus [14]): 0.35 - 0.38; Activity (Nakaseomyces glabratus [15]): Active; Activity (Nakaseomyces glabratus [16]): Active; cytotoxicity at 10 µM [17]: 10%; fold change (FC) (Nakaseomyces glabratus [18]): 9; fold change (FC) (Nakaseomyces glabratus [19]): 4; Activity (Nakaseomyces glabratus [20]): 3.2%
CCCC[C@@H]1N[C@H](C(=O)OC)Cc2c1[nH]c1ccccc21	> 250 µM	> 250 µM	> 250 µM	> 250 µM	> 250 µM	> 250 µM	> 250 µM	–
CCCCCCCCCCC[C@H]1N[C@H](C(=O)OC)Cc2c1[nH]c1ccccc21	> 250 µM	> 250 µM	> 250 µM	> 250 µM	> 250 µM	> 250 µM	> 250 µM	–

Reference: ChEMBL document CHEMBL4616592, “Design, synthesis and bio-evaluation of C-1 alkylated tetrahydro-β-carboline derivatives as novel antifungal lead compounds” (Bioorg Med Chem Lett, 2020)
